Source: the NIST ThermoML archive (doi:10.1016/j.fluid.2007.12.005)
Several values for one entry are separate records, joined by “and”; a condition that tells them apart may be missing. Equal entries are not always repeated. Numbers after ± are expanded uncertainties.

Details: 313.15 K; Liquid; Closed cell (Static) method
With `CCOC(C)(C)C` [2-ethoxy-2-methylpropane] the “vapor or sublimation pressure” value was 31.64 ± 0.12 kPa and 31.65 ± 0.12 kPa. For `CCCCCCC` [heptane], the “vapor or sublimation pressure” value was 12.31 ± 0.056 kPa and 12.32 ± 0.056 kPa. In the case of `C=CCCCC` [hex-1-ene], the “vapor or sublimation pressure” value is reported as 44.96 ± 0.24 kPa and 44.95 ± 0.24 kPa.
